# Values of other authors in US10711094B2, “Conjugated polymer nanoparticles, methods of using, and methods of making” (KING ABDULLAH UNIVERSITY OF SCIENCE AND TECHNOLOGY, priority 2015, dated 2020).
# Details: in ethanol
compound,measurement,value
O=C(O)c1ccccc1C1=c2cc3c4c(c2Oc2c1cc1c5c2CCCN5CCC1)CCC[N+]=4CCC3.[Cl-] [Rhodamine 101],fluorescence quantum yield (Φfl) of reference dye,96%
